From patent EP4790048A1, “S1PR4 REGULATOR COMPOUND FOR AUTOIMMUNE DISEASE TREATMENT AND APPLICATION THEREOF” (Shengyuan Zetong (Shanghai) Pharmaceutical Co., Ltd, priority 2023, dated 2025)
Read-outs that look alike come from different tables or passages of the source.

How the values were obtained:
[1] = Pharmacokinetic property testing in rats; assay type: in vivo, SD rats; details: for CL_obs / Vss_obs / AUC(0-t) / Cmax / half-life / Tmax / F (%): male SD rats; for AUC(0-t) / Cmax / half-life / Tmax / bioavailability: Sprague-Dawley, rat, in vivo; for Tmax: 3 per group; for bioavailability: male, oral, 10 mg/kg; for F (%): oral bioavailability, PO 10 mg/kg vs IV 1 mg/kg
Source text: In the structure-activity relationship discussion, the inventors obtained key compound 22. Based on compound 22, the polar head of the compound was modified as chiral pyrrolidine carboxylic acid, yielding selective S1PR4 agonists 30 and 67. We conducted pharmacokinetic property analyses on compounds 22, 30, and 67, respectively.

[2] = system: SD rats; assay: MIA-induced osteoarthritis (OA) model in rats; assay type: in vivo; details: for gross observation of knee joint femoral condyle cartilage: Day 15 dissection, 5 rats per group
Protocol: SD rats, approximately 200 g, male. Purchased from Shanghai Bikai Animal Co., Ltd. Adaptive feeding was conducted for about 7 days.
3.1.1 Anesthesia: the rat was placed into the anesthesia box, the O2 gas source and the gas delivery pump were turned on, and the gas adjustment knob was rotated to set the ratio of O2 to isoflurane at 8:2. The anesthesia depth knob was adjusted: first the indicator was turned to 3 to induce deep anesthesia in the rat; during the subsequent surgical procedure, the indicator was adjusted to 1.5 to maintain anesthesia. The three-way valve was opened to deliver gas into both the anesthesia box and the rat anesthesia mask.
The syringe needle was inserted at a 45° angle to the plateau along the lateral side of the patellar ligament, as shown in the figure below. The Control group is injected with 50 µl of 0.9% sterile normal saline, while the other groups are injected with 50 µl of sterile normal saline containing 3 mg of MIA. After the procedure, the rat was removed, placed in a breeding cage, and irradiated with an incandescent lamp to help restore body temperature until the rat recovers from anesthesia.
The Control group was administered 5% DMSO + 35% PEG400 + 60% normal saline. The compounds were dissolved in a system consisting of 5% dimethyl sulfoxide (DMSO), 35% polyethylene glycol 400 (PEG 400), and 60% normal saline. The drug solutions were prepared on the evening one day before administration.
The rats were acclimated for 1 week and randomly divided into groups, with a total of 10 rats. The Control group was administered 5% DMSO + 35% PEG400 + 60% normal saline, while the other groups were given the test compounds dissolved in 5% DMSO + 35% PEG400 + 60% normal saline.
3.4.1. From Day 1 to Day 14 of the experiment, the rats were administered intragastrically once daily, with a gavage volume of 5 mL/kg. The Control group and Model group were given 5% DMSO + 35% PEG400 + 60% normal saline throughout the experiment, while the other groups were administered the corresponding drugs.
On Day 7 and Day14 of the experiment, behavioral and joint pain tests were performed on the rats. To minimize confounding factors, the tests were conducted 1 hour after administration at a fixed time, preventing variations in the rats' condition at different time points from affecting the experimental results. The rats were allowed to acclimate to the environment for 20 minutes before the start of the experiment. • (1) Observation of walking distance and rearing times within five minutes: the dimensions of the resin box were measured and a paper sheet of the corresponding size was prepared. 1 cm × 1 cm grids were drawn on the paper sheet. The paper sheet was sealed with a transparent tape to prevent damage from rat excrement. Then the paper sheet with 1 cm × 1 cm grids was placed into the transparent resin box, ensuring a flat bottom. A camera device was used to record the walking process and trajectory of the rat within 5 minutes, and the walking distance and rearing times of the rat were counted. • (2) Joint Pain Assessment: After fixing the rat and allowing it to calm down, its knee joint was gently bent. […] The knee joint pain severity in rats is reflected by the scores of leg withdrawal and vocalization. The joint pain assessment was performed every 5 seconds for a total of 5 times.
On Day 15 of the experiment, the rats were anesthetized, and blood was collected from their eyeballs. The serum was left to stand overnight at 4°C, centrifuged at 3600 rpm for 15 minutes at 4°C. The serum was aspirated and stored at -80°C. The rats were sacrificed by cervical dislocation. An incision was made along the knee joint on ice to remove fur, muscle, and other tissues. For each group, 5 rats were used; bilateral knee joints were dissected, and the color, roughness, and integrity of the femoral condyle surface were observed. The knee joint cartilage was then harvested and cryopreserved at -80°C. […]

[3] = molecular target: T1, S1PR3 (Homo sapiens, UniProt Q99500); assay: β-arrestin recruitment, PathHunter CHO-K1-S1PR3 cells; assay type: cell-based; details: mean ± SD
T1 construct: expressed in transfected cells
T1 sequence (Q99500 whole entry, species assumed): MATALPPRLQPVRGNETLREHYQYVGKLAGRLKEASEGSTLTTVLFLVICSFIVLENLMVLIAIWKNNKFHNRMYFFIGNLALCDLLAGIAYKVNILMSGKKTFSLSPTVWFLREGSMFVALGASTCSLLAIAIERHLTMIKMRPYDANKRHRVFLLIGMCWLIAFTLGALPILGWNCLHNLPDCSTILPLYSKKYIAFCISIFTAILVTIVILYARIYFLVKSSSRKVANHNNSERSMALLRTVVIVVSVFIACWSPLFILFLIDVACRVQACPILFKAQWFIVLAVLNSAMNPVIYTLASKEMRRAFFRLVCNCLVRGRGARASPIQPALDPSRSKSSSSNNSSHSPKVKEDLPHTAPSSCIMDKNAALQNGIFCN

[4] = system: SKG mice; assay: Curdlan-induced ankylosing spondylitis (AS) model in SKG mice; assay type: in vivo; details: compound 30 3 mg/kg; for peripheral clinical symptom scores: Week 12, compound 67 3 mg/kg intragastric daily, adalimumab 10 mg/kg i.p., P < 0.05 vs model group; for swelling of the wrist and ankle joints / spinal CT imaging scores: compound 67 3 mg/kg; for spinal CT imaging scores: adalimumab 10 mg/kg, P<0.05 vs model group
Protocol: After adaptive feeding, SKG mice were used for the experiment. Except for 5 mice as the blank control group, the other 20 mice were intraperitoneally injected with Curdlan (3 mg per mouse) at week 0 and week 2 of the experiment to establish an AS mouse model, and were randomly divided into 4 groups: model group, positive control group treated with adalimumab (10 mg/kg), compound 30 group (3 mg/kg), and compound 67 group (3 mg/kg), with 5 mice in each group. Mice in the compound 30 and 67 groups were intragastrically administered compound 30 and 67 daily starting from week 3.3 until sacrifice; the positive control group received intraperitoneal injection of adalimumab injection (first administration at week 3.3, second at week 9). Body weight was measured every week to adjust the dosage.
Clinical symptom observation of the limbs and toes were conducted, and their redness and swelling were scored, with a total score of 16 points (4 points per foot).
• 0 = No swelling • 1 = Mild swelling and redness on the top of the foot • 2 = Severe swelling and redness on the top of the foot • 3 = Severe swelling and redness in the wrist or ankle joint • 4 = Severe swelling in the wrist or ankle joint and toes.
CT scans were performed on mice at Week 13.4 and 14.3 of the experiment to obtain imaging data of the mice's bones and joints. Image WL: 1400; WW: 2000.
• 1. Spine (total 2 points): 1 point for narrowed intervertebral space, 2 points for complete fusion. • 2. Sacroiliac joints (1 point for each side, total 2 points): 0.5 points for blurred and sclerotic articular surface, 0.5 points for narrowed joint space. • 3. Zygapophyseal joints of the spine (1 point for each side, total 2 points): 0.5 points for narrowed joint space, 1 point for complete fusion.
Analysis of variance (ANOVA) was performed using IBM SPSS Statistics software to obtain statistical results of the dataset, with P < 0.05 considered statistically significant.

[5] = DAY7, 0.3 mg/kg intragastric once daily, vs Model group
[6] = DAY7, 3 mg/kg intragastric once daily, vs Model group
[7] = DAY14, 0.3 mg/kg, vs Model group

SMILES | CL_obs ([1]; IV (1 mg/kg)) [mL/min/kg] | Vss_obs ([1]; IV (1 mg/kg)) [L/kg] | CL_obs ([1]; PO (10 mg/kg)) [mL/min/kg] | Vss_obs ([1]; PO (10 mg/kg)) [L/kg] | AUC(0-t) ([1]; IV (1 mg/kg)) [ng·h/mL] | Cmax ([1]; IV (1 mg/kg)) [ng/mL] | half-life ([1]; IV (1 mg/kg)) [h] | Tmax ([1]; IV (1 mg/kg)) [h] | AUC(0-t) ([1]; PO (10 mg/kg)) [ng·h/mL] | Cmax ([1]; PO (10 mg/kg)) [ng/mL] | half-life ([1]; PO (10 mg/kg)) [h] | Tmax ([1]; PO (10 mg/kg)) [h] | bioavailability [1] [%] | F (%) [1] [%] | OARSI score (severity of knee osteoarthritis) ([2]; 1 mg/kg, vs Model group) | OARSI score (severity of knee osteoarthritis) ([2]; 3 mg/kg, vs Model group) | pain index [2, 5] | five-minute walking distance ([2]; DAY7, 1 mg/kg, vs Model group) | pain index [2, 6] | five-minute walking distance [2, 7] | other results
CCc1cc(/C(C)=N/OCc2ccc(-c3ccccc3)c(C)c2)ccc1CN1CC[C@H](C(=O)O)C1 [Compound 30] | 20.2 ± 7.33 | 3.59 ± 1.16 | 17 ± 1.3 | 4.08 ± 0.32 | 824 ± 284 | 438 ± 82.6 | 2.15 ± 0.06 | 0.08 | 9860 ± 794 | 1030 ± 91.9 | 2.78 ± 0.12 | 2 | 120 | 119.7 | showed significant differences | showed significant differences | significantly decreased | increased significantly | significantly decreased | increased significantly | OARSI score (severity of knee osteoarthritis) ([2]; 0.3 mg/kg, vs Model group): showed significant differences; five-minute walking distance ([2]; DAY7, 0.3 mg/kg, vs Model group): increased significantly; pain index ([2]; DAY14, 1 mg/kg, vs Model group): significantly decreased; five-minute walking distance ([2]; DAY14, 3 mg/kg, vs Model group): increased significantly; pain index ([2]; DAY14, 3 mg/kg, vs Model group): significantly decreased; gross observation of knee joint femoral condyle cartilage [2]: knee cartilage in most rats became smooth and glossy; Safranin O-Fast Green staining of knee joints ([2]; vs Model group): enhanced safranin staining; EC50 [3]: no agonist activity; EC50 ([3]; read-out: EC50): > 10 µM; peripheral clinical symptom scores [4]: significantly lower; swelling of the wrist and ankle joints [4]: significantly reduced swelling of the wrist and ankle joints; spinal CT imaging scores [4]: significantly lower imaging scores
CCc1cc(/C(C)=N/OCc2ccc(-c3cnc(F)cn3)c(C)c2)ccc1CN1CC[C@H](C(=O)O)C1 [Compound 67, (S, E)-1-(2-ethyl-4-(1-(((4-(5-fluoropyrazin-2-yl)-3-methylbenzyl)oxy)imino)ethyl)benzyl)pyrrolidine-3-carboxylic acid] | 19.8 ± 0.67 | 1.52 ± 0.02 | 25.8 ± 4.5 | 4.88 ± 1.17 | 836 ± 27 | 958 ± 45.9 | 1.18 ± 0.01 | 0.08 | 6370 ± 1510 | 986 ± 277 | 2.17 ± 0.11 | 1.83 ± 1.89 | 76.2 | 76.21 | showed significant effects | showed significant effects | significantly decreased | increased significantly | significantly decreased | increased significantly | pain index ([2]; DAY7, 1 mg/kg intragastric once daily, vs Model group): significantly decreased; five-minute walking distance ([2]; DAY14, 1 mg/kg, vs Model group): increased significantly; pain index ([2]; DAY14, 1 mg/kg, vs Model group): significantly decreased; five-minute walking distance ([2]; DAY14, 3 mg/kg, vs Model group): increased significantly; pain index ([2]; DAY14, 3 mg/kg, vs Model group): significantly decreased; gross observation of knee joint femoral condyle cartilage [2]: cartilage of most rat knee joints became smooth and bright; serum IL-10 level ([2]; Elisa, vs Model group): tended to upregulate; serum IL-17 level ([2]; Elisa, vs Model group): tended to upregulate; Safranin O-Fast Green staining of knee joints ([2]; vs Model group): enhanced Safranin O staining; EC50 ([3]; read-out: EC50): > 10 µM; peripheral clinical symptom scores [4]: significantly lower; swelling of the wrist and ankle joints [4]: significantly reduced swelling of the wrist and ankle joints; spinal CT imaging scores [4]: significantly lower imaging scores
